Where two headings read alike, the source gives them in different places.
Test system: cancer cell lines
Assay: Standard Cytotoxicity Assay for other cancer cell types (TC50, CellTiter-Glo)
Assay type: cell-based
Description: Approximately 24 hours later, test compound was added from serial dilutions prepared in DMSO from DMSO stock solutions.

## O=C(NCc1cccnc1)Nc1ccc(COc2ccccc2-c2ccccc2)cc1 [Exemplary Compound A, 1-{4-[(biphenyl-2-yloxy)methyl]phenyl}-3-(pyridin-3-ylmethyl)urea]
Homo sapiens, MDA-MB-231, 168 h, MDA-MB-231 cells (breast), 7 day, read-out: Cmpd A 7 day TC50
  CC50: 8 nM
Homo sapiens, MDA-MB-436, 72 h, MDA-MB-436 cells (breast), 3 day, read-out: Cmpd A 3 day TC50
  CC50: 17 nM
Homo sapiens, MIA PaCa-2, 72 h, MIA PaCa-2 (pancreatic), 3 DAY, read-out: TC50 (the source's name)
  CC50: 1.8 nM
Homo sapiens, MIA PaCa-2, 72 h, MiaPaCa2 cells (pancreas), 3 day, read-out: Cmpd A 3 day TC50
  CC50: 1.8 nM
Homo sapiens, MIA PaCa-2, 168 h, MIA PaCa-2 (pancreatic), 7 DAY, read-out: TC50 (the source's name)
  CC50: 0.4 nM
Homo sapiens, MIA PaCa-2, 168 h, MiaPaCa2 cells (pancreas), 7 day, read-out: Cmpd A 7 day TC50
  CC50: 0.4 nM
Homo sapiens, MM1.S, 72 h, MM.1S cells (myeloma), 3 day, read-out: Cmpd A 3 day TC50
  CC50: 1.2 nM
Homo sapiens, Malme-3M, 72 h, MALME-3M cells (melanoma (lung metastasis)), 3 day, read-out: Cmpd A 3 day TC50
  CC50: 2.5 nM
Homo sapiens, NB-4, 72 h, NB-4 cells (myelogenous leukemia), 3 day, read-out: Cmpd A 3 day TC50
  CC50: < 0.8 nM
Homo sapiens, NCI-H69, 72 h, NCI-H69 (SCLC), 3 DAY, read-out: TC50 (the source's name)
  CC50: 1 nM
Homo sapiens, NCI-H69, 72 h, NCI-H69 cells (lung (small cell)), 3 day, read-out: Cmpd A 3 day TC50
  CC50: 1 nM
Homo sapiens, NCI-H82, 72 h, NCI-H82 (SCLC), 3 DAY, read-out: TC50 (the source's name)
  CC50: 1.1 nM
Homo sapiens, NCI-H226, 72 h, NCI-H226 cells (lung (NSCLC)), 3 day, read-out: Cmpd A 3 day TC50
  CC50: 62 nM
Homo sapiens, NCI-H460, 72 h, NCI-H460 (NSCLC), 3 DAY, read-out: TC50 (the source's name)
  CC50: 15.4 nM
Homo sapiens, NCI-H460, 72 h, NCI-H460 cells (lung (NSCLC)), 3 day, n = 9, read-out: Cmpd A 3 day TC50
  CC50: 26 nM
Homo sapiens, NCI-H460, 168 h, NCI-H460 cells (lung (NSCLC)), 7 day, n = 8, read-out: Cmpd A 7 day TC50
  CC50: 17 nM
Homo sapiens, NCI-H522, 72 h, NCI-H522 (NSCLC), 3 DAY, read-out: TC50 (the source's name)
  CC50: 1 nM
Homo sapiens, NCI-H522, 168 h, NCI-H522 (NSCLC), 7 DAY, read-out: TC50 (the source's name)
  CC50: 0.4 nM
Homo sapiens, NCI-H522, 168 h, NCI-H522 cells (lung (NSCLC)), 7 day, read-out: Cmpd A 7 day TC50
  CC50: 0.4 nM
Homo sapiens, NCI-H929, 72 h, NCI-H929 (myeloma), 3 DAY, read-out: TC50 (the source's name)
  CC50: 2.5 nM
Homo sapiens, NCI-H1299, 72 h, NCI-H1299 cells (lung (NSCLC)), 3 day, read-out: Cmpd A 3 day TC50
  CC50: 4 nM
Homo sapiens, NCI-H1650, 72 h, NCI-H1650 (NSCLC), 3 DAY, read-out: TC50 (the source's name)
  CC50: 2.5 nM
Homo sapiens, NCI-H1650, 72 h, NCI-H1650 cells (lung (NSCLC)), 3 day, read-out: Cmpd A 3 day TC50
  CC50: 1.5 nM
Homo sapiens, NCI-N87, 72 h, NCI-N87 (gastric), 3 DAY, read-out: TC50 (the source's name)
  CC50: 0.3 nM
Homo sapiens, NCI-N87, 72 h, NCI-N87 cells (gastric), 3 day, read-out: Cmpd A 3 day TC50
  CC50: 0.3 nM
Homo sapiens, NCI-N87, 168 h, NCI-N87 (gastric), 7 DAY, read-out: TC50 (the source's name)
  CC50: 0.2 nM
Homo sapiens, NCI-N87, 168 h, NCI-N87 cells (gastric), 7 day, read-out: Cmpd A 7 day TC50
  CC50: 0.2 nM
Homo sapiens, NOMO-1, 72 h, NOMO-1 cells (myelogenous leukemia), 3 day, read-out: Cmpd A 3 day TC50
  CC50: < 0.8 nM
Homo sapiens, OCI-LY19, 72 h, OCI-LY-19 cells (lymphoma), 3 day, read-out: Cmpd A 3 day TC50
  CC50: 1.1 nM
Homo sapiens, OCI-LY19, 72 h, OCI-Ly19 (lymphoma), 3 DAY, read-out: TC50 (the source's name)
  CC50: 1.2 nM
Homo sapiens, OPM-2, 72 h, OPM-2 (myeloma), 3 DAY, read-out: TC50 (the source's name)
  CC50: 1.5 nM
Homo sapiens, OVCAR-3, 72 h, OVCAR3 (ovarian), 3 DAY, read-out: TC50 (the source's name)
  CC50: 1.1 nM
Homo sapiens, OVCAR-3, 72 h, OVCAR-3 cells (ovary), 3 day, read-out: Cmpd A 3 day TC50
  CC50: 1.1 nM
Homo sapiens, OVCAR-3, 168 h, OVCAR3 (ovarian), 7 DAY, read-out: TC50 (the source's name)
  CC50: 0.4 nM
Homo sapiens, OVCAR-3, 168 h, OVCAR-3 cells (ovary), 7 day, read-out: Cmpd A 7 day TC50
  CC50: 0.4 nM
Homo sapiens, OVCAR-4, 72 h, OVCAR-4 cells (ovary), 3 day, read-out: Cmpd A 3 day TC50
  CC50: 2.8 nM
Homo sapiens, OVCAR-5, 72 h, OVCAR-5 cells (ovary), 3 day, read-out: Cmpd A 3 day TC50
  CC50: 1.5 nM
Homo sapiens, OVCAR-8, 72 h, OVCAR-8 cells (ovary), 3 day, read-out: Cmpd A 3 day TC50
  CC50: 0.5 nM
Homo sapiens, PC-3, 72 h, PC-3 cells (prostate), 3 day, read-out: Cmpd A 3 day TC50
  CC50: < 1.5 nM
Homo sapiens, PFSK-1, 72 h, PFSK-1 cells (brain; malignant neuroectodermal tumor), 3 day, read-out: Cmpd A 3 day TC50
  CC50: < 0.8 nM
Homo sapiens, RPMI-8226, 72 h, RPMI-8226 cells (myeloma), 3 day, read-out: Cmpd A 3 day TC50
  CC50: 6 nM
Homo sapiens, Ramos, 72 h, Ramos cells (lymphoma), 3 day, read-out: Cmpd A 3 day TC50
  CC50: 1.8 nM
Homo sapiens, SF-295, 72 h, SF-295 (glioma), 3 DAY, read-out: TC50 (the source's name)
  CC50: 1.5 nM
Homo sapiens, SK-BR-3, 72 h, SK-BR-3 cells (breast), 3 day, read-out: Cmpd A 3 day TC50
  CC50: 6.8 nM
Homo sapiens, SK-OV-3, 72 h, SK-OV-3 cells (ovary), 3 day, read-out: Cmpd A 3 day TC50
  CC50: 1.2 nM
Homo sapiens, SKM-1, 72 h, SKM-1 cells (myelogenous leukemia), 3 day, read-out: Cmpd A 3 day TC50
  CC50: < 0.8 nM
Homo sapiens, SR, 72 h, SR cells (lymphoma), 3 day, read-out: Cmpd A 3 day TC50
  CC50: 21 nM
Homo sapiens, SU-DHL10, 72 h, SU-DHL-10 cells (lymphoma), 3 day, read-out: Cmpd A 3 day TC50
  CC50: 0.75 nM
Homo sapiens, SU-DHL-1, 72 h, SU-DHL-1 cells (lymphoma), 3 day, read-out: Cmpd A 3 day TC50
  CC50: 37 nM
Homo sapiens, SU-DHL-4, 72 h, SU-DHL-4 (lymphoma), 3 DAY, read-out: TC50 (the source's name)
  CC50: 1.5 nM
Homo sapiens, SU-DHL-4, 72 h, SU-DHL-4 cells (lymphoma), 3 day, read-out: Cmpd A 3 day TC50
  CC50: 0.84 nM
Homo sapiens, SU-DHL-5, 72 h, SU-DHL-5 (lymphoma), 3 DAY, read-out: TC50 (the source's name)
  CC50: 0.9 nM
Homo sapiens, SU-DHL-5, 72 h, SU-DHL-5 cells (lymphoma), 3 day, read-out: Cmpd A 3 day TC50
  CC50: 0.57 nM
Homo sapiens, SU-DHL-8, 72 h, SU-DHL-8 cells (lymphoma), 3 day, read-out: Cmpd A 3 day TC50
  CC50: 0.59 nM
Homo sapiens, SU.86.86, 72 h, SU.86.86 cells (pancreas), 3 day, read-out: Cmpd A 3 day TC50
  CC50: 4.3 nM
Homo sapiens, SW48, 72 h, SW-48 cells (colon), 3 day, read-out: Cmpd A 3 day TC50
  CC50: 2.3 nM
Homo sapiens, SW480, 72 h, SW 480 cells (colon), 3 day, read-out: Cmpd A 3 day TC50
  CC50: 4 nM
Homo sapiens, T47D, 72 h, T47D cells (breast), 3 day, read-out: Cmpd A 3 day TC50
  CC50: 0.8 nM
Homo sapiens, T-24, 72 h, T24 cells (bladder), 3 day, read-out: Cmpd A 3 day TC50
  CC50: 1 nM
Homo sapiens, THP-1, 72 h, THP-1 cells (lymphocytic leukemia), 3 day, read-out: Cmpd A 3 day TC50
  CC50: < 0.8 nM
Homo sapiens, U2OS, 72 h, U-2 OS cells (osteosarcoma), 3 day, read-out: Cmpd A 3 day TC50
  CC50: 2.2 nM
Homo sapiens, U-87 MG, 72 h, U-87MG (glioma), 3 DAY, read-out: TC50 (the source's name)
  CC50: 23 nM
Homo sapiens, U-87 MG, 72 h, U-87 MG cells (brain; glioblastoma/astrocytoma), 3 day, read-out: Cmpd A 3 day TC50
  CC50: 15 nM
Homo sapiens, U-266, 72 h, U266 cells (myeloma), 3 day, read-out: Cmpd A 3 day TC50
  CC50: 18 nM
Homo sapiens, U-266, 168 h, U266 cells (myeloma), 7 day, read-out: Cmpd A 7 day TC50
  CC50: 1.5 nM
Homo sapiens, U-937, 72 h, U-937 cells (lymphoma), 3 day, read-out: Cmpd A 3 day TC50
  CC50: 1 nM
Homo sapiens, UACC-257, 72 h, UACC-257 cells (melanoma), 3 day, read-out: Cmpd A 3 day TC50
  CC50: 27 nM
Homo sapiens, VCaP, 72 h, VCaP cells (prostate), 3 day, n = 2, read-out: Cmpd A 3 day TC50
  CC50: > 10000 nM
Homo sapiens, VCaP, 168 h, VCaP cells (prostate), 7 day, read-out: Cmpd A 7 day TC50
  CC50: 14 nM
Hs766T, 72 h, Hs 766T cells (pancreas), 3 day, read-out: Cmpd A 3 day TC50
  CC50: 4.7 nM
L-82, 72 h, L-82 cells (lymphoma), 3 day, read-out: Cmpd A 3 day TC50
  CC50: 32 nM
MLE12, 72 h, MLE-12 cells (mouse; lung), 3 day, read-out: Cmpd A 3 day TC50
  CC50: 4 nM
MM.1R, 72 h, MM.1R cells (myeloma), 3 day, read-out: Cmpd A 3 day TC50
  CC50: 1.5 nM
Mus musculus, B16-F10, 72 h, B16-F10 cells (mouse; melanoma), 3 day, read-out: Cmpd A 3 day TC50
  CC50: 80 nM
Mus musculus, Hepa1-6, 72 h, Hepa1-6 cells (mouse; hepatoma), 3 day, read-out: Cmpd A 3 day TC50
  CC50: 2.5 nM
Mus musculus, RAW264.7, 72 h, RAW264.7 cells (mouse; leukemia), 3 day, read-out: Cmpd A 3 day TC50
  CC50: 14 nM
OVCAR-3 cells (ovary), 3 day, read-out: Cmpd A 3 day TC50
  CC50: < 0.8 nM
OVCAR-8 cells (ovary), 3 day, read-out: Cmpd A 3 day TC50
  CC50: < 0.8 nM
SR-786, 72 h, SR-786 cells (lymphoma), 3 day, read-out: Cmpd A 3 day TC50
  CC50: 1.1 nM
SU-DHL-10 cells (lymphoma), 3 day, read-out: Cmpd A 3 day TC50
  CC50: 0.83 nM
SUP-M2, 72 h, SUP-M2 cells (lymphoma), 3 day, read-out: Cmpd A 3 day TC50
  CC50: 2.2 nM
T47D cells (breast), 3 day, read-out: Cmpd A 3 day TC50
  CC50: < 1.5 nM
U266 cells (myeloma), 3 day, read-out: Cmpd A 3 day TC50
  CC50: 10.3 nM
U-937 cells (lymphoma), 3 day, read-out: Cmpd A 3 day TC50
  CC50: 0.89 nM
UWB1289, 72 h, UWB1.289 cells (ovary), 3 day, read-out: Cmpd A 3 day TC50
  CC50: 2.4 nM
